# Assay results from patent US20140303373A1, “CRYSTALLINE FORM OF TIOTROPIUM BROMIDE” (CERBIOS-PHARMA SA, priority 2013, published 2014).
# Assays:
# [1] = stability at 25° C./60% relative humidity (impurity profile and X-ray spectrum); format: physicochemical
# [2] = accelerated stability study, related substances by HPLC (Eur. Ph. 07/2010:2420); format: physicochemical
# Method: The tiotropium bromide accelerated stability studies were performed storing the drug substance, prepared as described in the previous examples, at 40±2° C./75±5% RH. Stability was evaluated in dark glass vial with screw cap. The frequency of the analyses performed has included five test points: 0, 7 days, 1, 3, and 6 months. Related substances amount of tiotropium bromide was measured by HPLC, following the Eur. Ph. procedure (07/2010:2420).
smiles,measurement,setting,value
C[N+]1(C)C2CC(OC(=O)C(O)(c3cccs3)c3cccs3)CC1[C@@H]1O[C@H]21.[Br-] (some centres unmarked) [Tiotropium Bromide],impurity profile and X-ray spectrum on storage,[1],did not change for at least six months
same,impurity profile and X-ray spectrum on storage,[2]; 40° C./75% RH,did not change for at least six months
same,"Related substances: Impurity A, RRT 0.40-0.47","[2]; 40±2° C./75±5% RH, 7 days",0.02
same,"Related substances: Impurity B, RRT 0.79-0.84","[2]; 40±2° C./75±5% RH, 7 days",0.04
same,"Related substances: unnamed, RRT 0.98","[2]; 40±2° C./75±5% RH, 7 days",0.03
same,"Related substances: unnamed, RRT 1.21-1.35","[2]; 40±2° C./75±5% RH, 7 days",0.01
same,"Related substances: unnamed, RRT 1.22-1.37","[2]; 40±2° C./75±5% RH, 7 days",0.02
same,Sum of impurities,"[2]; 40±2° C./75±5% RH, 7 days",0.12
same,"Tiotropium Bromide, RRT 1.00 (HPLC)","[2]; 40±2° C./75±5% RH, 7 days",99.88
same,"Related substances: Impurity A, RRT 0.40-0.47","[2]; 40±2° C./75±5% RH, 30 d",0.02
same,"Related substances: Impurity B, RRT 0.79-0.84","[2]; 40±2° C./75±5% RH, 30 d",0.04
same,"Related substances: unnamed, RRT 0.98","[2]; 40±2° C./75±5% RH, 30 d",0.03
same,"Related substances: unnamed, RRT 1.22-1.37","[2]; 40±2° C./75±5% RH, 30 d",0.03
same,Sum of impurities,"[2]; 40±2° C./75±5% RH, 30 d",0.12
same,"Tiotropium Bromide, RRT 1.00 (HPLC)","[2]; 40±2° C./75±5% RH, 30 d",99.88
same,"Related substances: Impurity A, RRT 0.40-0.47","[2]; 40±2° C./75±5% RH, 90 d",0.02
same,"Related substances: Impurity B, RRT 0.79-0.84","[2]; 40±2° C./75±5% RH, 90 d",0.04
same,"Related substances: Impurity E, RRT 1.73","[2]; 40±2° C./75±5% RH, 90 d",0.01
same,"Related substances: unnamed, RRT 0.39","[2]; 40±2° C./75±5% RH, 90 d",0.02
same,"Related substances: unnamed, RRT 0.98","[2]; 40±2° C./75±5% RH, 90 d",0.02
same,"Related substances: unnamed, RRT 1.21-1.35","[2]; 40±2° C./75±5% RH, 90 d",0.02
same,"Related substances: unnamed, RRT 1.22-1.37","[2]; 40±2° C./75±5% RH, 90 d",0.03
same,"Related substances: unnamed, RRT 1.50-1.53","[2]; 40±2° C./75±5% RH, 90 d",0.01
same,Sum of impurities,"[2]; 40±2° C./75±5% RH, 90 d",0.17
same,"Tiotropium Bromide, RRT 1.00 (HPLC)","[2]; 40±2° C./75±5% RH, 90 d",99.83
same,"Related substances: Impurity A, RRT 0.40-0.47","[2]; 40±2° C./75±5% RH, 180 d",0.02
same,"Related substances: Impurity B, RRT 0.79-0.84","[2]; 40±2° C./75±5% RH, 180 d",0.04
same,"Related substances: unnamed, RRT 0.98","[2]; 40±2° C./75±5% RH, 180 d",0.02
same,"Related substances: unnamed, RRT 1.21-1.35","[2]; 40±2° C./75±5% RH, 180 d",0.02
same,"Related substances: unnamed, RRT 1.22-1.37","[2]; 40±2° C./75±5% RH, 180 d",0.03
same,"Related substances: unnamed, RRT 1.50-1.53","[2]; 40±2° C./75±5% RH, 180 d",0.01
same,Sum of impurities,"[2]; 40±2° C./75±5% RH, 180 d",0.14
same,"Tiotropium Bromide, RRT 1.00 (HPLC)","[2]; 40±2° C./75±5% RH, 180 d",99.86
same,"Related substances: Impurity A, RRT 0.40-0.47","[2]; 40±2° C./75±5% RH, Time 0",0.02
same,"Related substances: Impurity B, RRT 0.79-0.84","[2]; 40±2° C./75±5% RH, Time 0",0.04
same,"Related substances: unnamed, RRT 0.98","[2]; 40±2° C./75±5% RH, Time 0",0.03
same,"Related substances: unnamed, RRT 1.21-1.35","[2]; 40±2° C./75±5% RH, Time 0",0.01
same,"Related substances: unnamed, RRT 1.22-1.37","[2]; 40±2° C./75±5% RH, Time 0",0.02
same,"Related substances: unnamed, RRT 1.50-1.53","[2]; 40±2° C./75±5% RH, Time 0",0.01
same,Sum of impurities,"[2]; 40±2° C./75±5% RH, Time 0",0.13
same,"Tiotropium Bromide, RRT 1.00 (HPLC)","[2]; 40±2° C./75±5% RH, Time 0",99.87
